7 molecules from patent publication US9901095B2, “Processes for the preparation of pesticidal compounds” (Dow AgroSciences LLC, priority 2013, dated 2018) can be followed below.

Data set [1] deals with Sweetpotato Whitefly Crawler (Bemisia tabaci) (BEMITA). The experiment in a line: Bioassay on Sweetpotato Whitefly Crawler, foliar spray on cotton plants. The following applies: 200 ppm spray on cotton plants; live nymphs counted after 8-9 days; Abbott's correction. The class given is in vivo. The procedure:
Cotton plants grown in 3-inch pots, with 1 small (3-5 cm) true leaf, were used at test substrate. The plants were placed in a room with whitely adults. Adults were allowed to deposit eggs for 2-3 days. After a 2-3 day egg-laying period, plants were taken from the adult whitefly room. Adults were blown off leaves using a hand-held Devilbliss sprayer (23 psi). Plants with egg infestation (100-300 eggs per plant) were placed in a holding room for 5-6 days at 82° F. and 50% RH for egg hatch and crawler stage to develop. Four cotton plants were used for each treatment. Compounds (2 mg) were dissolved in 1 mL of acetone solvent, forming stock solutions of 2000 ppm. The stock solutions were diluted 10× with 0.025% Tween 20 in water to obtain a test solution at 200 ppm. A hand-held Devilbliss sprayer was used for spraying a solution to both sides of cotton leaf until runoff. Reference plants (solvent check) were sprayed with the diluent only. Treated plants were held in a holding room for 8-9 days at approximately 82° F. and 50% RH prior to grading. Evaluation was conducted by counting the number of live nymphs per plant under a microscope.

The subject of data set [2] is Green Peach Aphid (Myzus persicae) (MYZUPE). The experiment in a line: Bioassay on Green Peach Aphid (GPA), foliar spray on cabbage seedlings. It is filed as in vivo. The following applies: 200 ppm spray on cabbage seedlings; live aphids counted after three days; Abbott's correction. On the procedure: Several molecules disclosed herein were tested against GPA using procedures described below.
Cabbage seedling grown in 3-in pots, with 2-3 small (3-5 cm) true leaves, were used as test substrate. The seedlings were infested with […] (wingless adult and nymph stages) one day prior to chemical application. Four pots with individual seedlings were used for each treatment. Test compounds (2 mg) were dissolved in 2 mL of acetone/methanol (1:1) solvent, forming stock solutions of 1000 ppm test compound. The stock solutions were diluted 5× with 0.025% Tween 20 in water to obtain the solution at 200 ppm test compound. A hand-held aspirator-type sprayer was used for spraying a solution to both sides of the cabbage leaves until runoff. Reference plants (solvent check) were sprayed with the diluent only containing 20% by volume acetone/methanol (1:1) solvent. Treated plants were held in a holding room for three days at approximately 25° C. and ambient relative humidity (RH) prior to grading. Evaluation was conducted by counting the number of live aphids per plant under a microscope. Percent Control was measured by using Abbott's correction formula (W. S. Abbott, “A Method of Computing the Effectiveness of an Insecticide” J. Econ. Entomol 18 (1925), pp. 265-267) as follows. Corrected % Control=100*(X−Y)/X
X=No. of live aphids on solvent check plants and
Y=No. of live aphids on treated plants
The results are indicated in the table entitled “Table 1: GPA (MYZUPE) and sweetpotato whitefly-crawler (BEMITA) Rating Table”.

For the molecule `CCNc1cn(-c2cccnc2)nc1Cl` [Compound 1d, 3-Chloro-N-ethyl-1-(pyridin-3-yl)-1H-pyrazol-amine], the “BEMITA rating (% Control of Mortality)” value in data set [1] is listed as “B (More than 0-Less than 80)”. Moreover, the “MYZUPE rating (% Control of Mortality)” value in data set [2] is “B (More than 0-Less than 80)”.

Turning to `CCN(C(=O)CC[S+]([O-])CCC(F)(F)F)c1cn(-c2cccnc2)nc1Cl` (centres unmarked) [Compound 7.2, N-(3-Chloro-1-(pyridin-3-yl)-1H-pyrazol-4-yl)-N-ethyl-3-((3,3,3-trifluoropropyl)sulfoxo)propanamide], in data set [1], the “BEMITA rating (% Control of Mortality)” value is listed as “A (80-100)”. Besides, the “MYZUPE rating (% Control of Mortality)” value in data set [2] is on record as “A (80-100)”.

`Cl.Nc1c[nH]nc1Cl` [Compound 1a, 3-Chloro-1H-pyrazol-4-amine hydrochloride]: the “BEMITA rating (% Control of Mortality)” value in data set [1] was “B (More than 0-Less than 80)”. Also, the “MYZUPE rating (% Control of Mortality)” value in data set [2] was “B (More than 0-Less than 80)”.

As to `CC(=O)Nc1c[nH]nc1Cl` [Compound 1b, N-(3-Chloro-1H-pyrazol-4-yl)acetamide], in data set [1], the “BEMITA rating (% Control of Mortality)” value is “B (More than 0-Less than 80)”. For the same molecule, the “MYZUPE rating (% Control of Mortality)” value in data set [2] is “B (More than 0-Less than 80)”.

Take `CCN(C(=O)CCSCCC(F)(F)F)c1cn(-c2cccnc2)nc1Cl` [Compound 6.2, N-(3-Chloro-1-(pyridin-3-yl)-1H-pyrazol-4-yl)-N-ethyl-3-((3,3,3-trifluoropropyl)thio)propanamide]: the “BEMITA rating (% Control of Mortality)” value in data set [1] is reported as “A (80-100)”. The “MYZUPE rating (% Control of Mortality)” value in data set [2] is recorded as “A (80-100)”.

On to `CCN(C(=O)CCCl)c1cn(-c2cccnc2)nc1Cl` [Compound 2a, 3-Chloro-N-(3-chloro-1-(pyridin-3-yl)-1H-pyrazol-4-yl)-N-ethylpropanamide], for which the “BEMITA rating (% Control of Mortality)” value in data set [1] is recorded as “A (80-100)”. Also, the “MYZUPE rating (% Control of Mortality)” value in data set [2] is given as “A (80-100)”.

Regarding `CC(=O)Nc1cn(-c2cccnc2)nc1Cl` [Compound 1c, N-(3-Chloro-1-(pyridin-3-yl)-1H-pyrazol-4-yl)acetamide], the “BEMITA rating (% Control of Mortality)” value in data set [1] is reported as “B (More than 0-Less than 80)”. In addition, the “MYZUPE rating (% Control of Mortality)” value in data set [2] was “B (More than 0-Less than 80)”.
